In a melting point compilation (Tetko et al.; mined from patent text by program, amines drawn as free bases though some values may be those of a salt):

| Compound | melting point |
| --- | --- |
| COC(=O)c1cccc(-c2nnn(Cc3ccc(OC)cc3)n2)c1 | 105 to 106 °C |
| CSc1nn2c(N)cc(CN(C)C)nc2c1S(=O)(=O)c1ccccc1 | 216 to 218 °C |
| O=C(O)CC1Cc2ccc(OCc3ccccc3)cc2C1 (stereo unspecified) | 127 to 129 °C |
| CC12CC(N3CCCCC3)C(O)CC1CCC1C2CCC2(C)C(O)C(N3CCC4(CC3)OCCO4)CC12 (stereo unspecified) | 183 to 185 °C |
| CC(=O)NCC1CC1c1c(C)ccc2nn(C)cc12 (stereo unspecified) | 139 to 140 °C |
| COC1=C(Cl)C(=O)C(OC)=C(CCCCCC2=C(OC)C(=O)C(Cl)=C(OC)C2=O)C1=O | 79.8 to 80 °C |
| NCC(O)c1cc(C(N)=O)c2[nH]ccc2c1 (stereo unspecified) | 88 to 90 °C |
| O=C(O)c1ccc(NCc2cccc(C(F)(F)F)c2)cn1 | 216 to 217 °C |
| CN(C)C(=O)C(c1ccccc1)(c1ccccc1)C1CCNC1 (stereo unspecified) | 159 to 160 °C |
| COc1c2c(nc3ccccc13)CCNCC2 | 112 °C |
| CCOc1nc(C(F)(F)C(F)(F)F)cc(=O)n1-c1cc(O)c(Cl)cc1F | 117 to 120 °C |
| Cc1ccsc1C(=O)C(=CN(C)C)c1ccccc1[N+](=O)[O-] | 101 to 103 °C |
| COC(=O)CSCC(NC(=O)OC(C)(C)C)c1ccc(F)cc1 (stereo unspecified) | 61 to 62 °C |
| CCOC(=O)C(C)(C)NC(=O)c1cccc(C2=NC(C)(C)Cc3cc(OC)c4c(c32)CC(C)(C)O4)c1 | 114 to 115 °C |
| COC(=O)[C@H](Cc1ccc(NC(=O)c2c(Cl)cccc2Cl)cc1)NC(=S)C1(CCCSC)CCC1 | 184 to 186 °C |
| CCCCc1c(C(=O)N(C)Cc2ccc3c(Br)c(OCc4nnn[nH]4)ccc3c2)c2ccccc2n1C | 147 to 149 °C |
| OC(CCCc1ccccc1)c1ccc(OCc2ccc3ccccc3n2)cc1 (stereo unspecified) | 118 to 119 °C |
| C=Cc1ccc2cc(C3CCN(Cc4ccccc4)CC3)ccc2c1 | 112 to 114 °C |
| CC1(C)OC2C=CC(=O)C2O1 (single isomer, unassigned; (+)) | 68 to 69 °C |
| N#Cc1ccc(NCC(=O)Nc2c(Cl)ccc3nc(N4CC[C@@H](O)C4)ccc23)cc1 | 230 to 233 °C |
| Oc1ccc(-c2nnc(Nc3ccc(Br)c(Cl)c3)s2)cc1O | 220 °C |
| CC(C)(C)OC(=O)C[C@H](NC(=O)CNC(=O)CCc1ccc(C(=N)N)cc1)C(=O)NC1(C(=O)O)CCCC1 | 136 to 138 °C |
| COc1ccc(C=CC(=O)c2ccco2)c(OC)c1 | 57 to 59 °C |
| CN(C)CC1CCCCN1CC(=O)N1c2ccccc2NC(=O)c2c1ccn2C (stereo unspecified) | 163 to 165 °C |
| Cn1ccnc1CNC(=O)c1[nH]c2ccc(Cl)cc2c1S(=O)(=O)c1cccc(Cl)c1 | 232 to 234 °C |
| CCc1nc2c(C)cc(C)nc2n1Cc1ccc(C(CCNS(=O)(=O)C(F)(F)F)c2ccccc2)cc1 (stereo unspecified) | 64 to 69 °C |

| Compound | melting point |
| --- | --- |
| CC1(C)COC(c2ccccc2S(N)(=O)=O)=N1 | 142 to 146 °C |
| CO[Si]1(OC)CCCNCCN1 | 61 to 62 °C |
| CCOC(=O)CSc1cc(C)nc(N)n1 | 65 to 69 °C |
| CCOC(=O)c1cc(=O)c2c(OCC(O)COc3cccc4occc(=O)c34)cccc2o1 (stereo unspecified) | 155 to 159 °C |
| CCOC(=O)C(C)Oc1ccc(OCc2ccccc2)cc1 (stereo unspecified) | 36 to 44 °C |
| Cc1cc2nc(C)c(CCCl)c(=O)n2o1 | 165 °C |
| CCOC(=O)c1nc2scc(NC(=O)Cc3ccccc3)c2c(=O)[nH]1 | 237 °C |
| FC(F)(F)c1ccc(-c2ccnc(Nc3cnc4ccccc4c3)c2)cc1 | 207 to 208 °C |
| O=C1C(=O)c2ccccc2C2=C1SCC1(CCN(C(=O)CSc3ccccc3)CC1)O2 | 155 to 157 °C |
| CCOC(=O)C(C)=CC=CC(C)=CC=CC=C(C)C=O | 120 to 121 °C |
| COC(=O)Nc1nc2ccc(Oc3ccccn3)cc2[nH]1 | 246 to 253 °C |
| CC(C)COC(=O)Nc1cccc(-c2ccnc3c(Br)cnn23)c1 | 90 to 92 °C |
| CCOC(=O)C(Cl)=Cc1cc(-n2c(Cl)nc(C(F)(F)F)cc2=O)ccc1Cl | 114 to 115 °C |
| N#Cc1nn(-c2c(Cl)cc(C(F)(F)F)cc2Cl)c(N)c1-c1ccc(F)c(Cl)c1 | 197 to 198 °C |
| CCOC(=O)c1cc(-c2ocnc2C)[nH]n1 | 131 to 133 °C |
| Cc1nc2c3c(ccn2c1C)[C@@H](O)[C@@](C)(O)[C@@H](c1ccccc1)N3 | 180 °C |
| N=C(N)Nc1nc(CSCCNC=NS(=O)(=O)c2ccc(Br)cc2)cs1 | 142 to 146 °C |
| CCc1cccc(C(C)C)c1N1C(=O)CN(CC)C1=S | 77 to 79 °C |
| Cc1cc(C)c(Nc2nc(N(C)C)ncc2S(=O)(=O)c2cccc(OCc3ccccc3)c2)c(C)c1 | 52 to 58 °C |
| CC(C)NS(=O)(=O)c1cccc(NC(=O)c2cnn3c(C(F)(F)F)cc(-c4ccc(C(F)(F)F)cc4)nc23)c1 | 222 °C |
| O=S(N=Cc1ccccc1)c1nccnc1Cl (stereo unspecified) | 113 to 114 °C |
| CCOC(=O)CN1CC(=O)N(C)c2ccc([N+](=O)[O-])cc2C1=O | 129 to 130 °C |
| O=c1[nH]c(=S)c(C2c3ccccc3C=Cc3ccccc32)cn1-c1ccc(Sc2n[nH]c(C(F)(F)F)n2)nn1 | 165 °C |
| COc1cc(CCC#N)c(Br)cc1OCc1ccccc1 | 52 to 53 °C |
| S=c1nc(-c2cccnc2Cl)[nH]n1Cc1ccccc1 | 155 to 156 °C |
| O=C(NCCCCn1ccnc1)c1ccc(Cl)c(Cl)c1 | 86 to 88 °C |

| Compound | melting point |
| --- | --- |
| COC(=O)C1=C(SC)N(c2c(C)cc(C)cc2Cl)CCC1 | 85.3 to 87.6 °C |
| COc1ccccc1C(=O)c1sc(Nc2cccnc2)nc1N | 245 to 246 °C |
| CCCCCCCCCCCCCCCc1cccc(OCC)c1C1NC(=O)NC(C)=C1C(=O)OCC (stereo unspecified) | 99 to 100 °C |
| CSc1nc(=O)cc(N)n1-c1ccc(Br)cc1 | 138 to 140 °C |
| CN1Cc2c(Br)ncn2-c2ccccc2C1=O | 196 to 198 °C |
| O=[N+]([O-])c1ccc(-n2ccnc2)cc1 | 150 °C |
| OC1(c2ccc(F)cc2)CCN(CCCc2noc3cc(F)ccc23)CC1 | 100 to 101 °C |
| Cc1cc2cc(CN3CCCCCC3)cnc2cc1NC(=O)c1ccc(-c2ccc(Cl)s2)cc1 | 180 °C |
| COc1ccc2c(c1)N1CCOCC1CN=C2c1ccco1 (stereo unspecified) | 130 to 132 °C |
| Cc1ccc(S(=O)(=O)N(C)c2ccccc(N)c2=O)cc1 | 221 to 222 °C |
| CCOC(=O)N1CCC(C(=O)c2ccc(F)cc2)(c2ccccc2)CC1 | 91.7 °C |
| OCCN=Cc1ccc(Br)cc1 | 79 to 81 °C |
| O=[N+]([O-])c1c(CBr)cccc1Oc1ccccc1Cl | 68 to 70 °C |
| CCOC(=O)CC(=O)c1cccs1 | 143 to 145 °C |
| CCOC(=O)C(C#N)=CNc1ncccc1C | 139 to 143 °C |
| Cc1ccccc1-c1nc(-c2ccccc2Cl)sc1-c1ccc(S(C)(=O)=O)cc1 | 156 to 157 °C |
| CCN1C(=O)C2CCCN2Cc2ccccc21 (stereo unspecified) | 138 to 140 °C |
| O=C(O)/C=C1/c2ccccc2N(C(=O)c2ccc(NC(=O)c3ccccc3-c3ccccc3)cc2)CCC1(F)F | 224 to 226 °C |
| CN(C)S(=O)(=O)c1cc2c(c(C(=O)O)c1)OC(C)(C)C2 | 211 to 212 °C |
| CC1CC=C(N(C)c2ccccc2)c2ncc(C(=O)O)c(=O)n21 (stereo unspecified) | 170 to 171 °C |
| CNC(=S)N(Cc1ccc(Cl)nc1)CC(F)(F)F | 98 to 100 °C |
| Fc1ccc(Cn2c(OC3CCN(Cc4ccccc4)CC3)nc3cncnc32)cc1 | 117 °C |
| Cc1cc(-c2ccc(F)cc2)ccc1C(=O)Nc1ccc2cc(CN3CCCC3)cnc2c1C | 200 to 203 °C |
| COc1nc(C(=O)N(C)Cc2cc(C(F)(F)F)cc(C(F)(F)F)c2)c(-c2ccccc2)c2ccccc12 | 129 to 130 °C |
| NCC(=O)NCc1cccnc1 | 87 to 88 °C |
| COc1ccc(N(C)C(C)=O)cc1C | 65 to 66 °C |

| Compound | melting point |
| --- | --- |
| CCCc1c(SCCCOc2ccc(C(C)=O)c(OCCCC(=O)OCC)c2CCC)ccc(C(C)=O)c1O | 65 to 66 °C |
| Cc1cc(-c2cnn3c(C(F)(F)F)cc(-c4ccc(Cl)cc4)nc23)cc(C)n1 | 256 °C |
| O=C(O)c1cccc2c(=O)cc(-c3cccc(OCc4ccccc4)c3)oc12 | 121 to 122 °C |
| CC(C)(C)OC(=O)c1nc(-c2ccc(Cl)cc2)[nH]c1-c1ccncc1 | 206 to 207 °C |
| CCOC(=O)C1=C(C)Nc2ccnc(OC(C)C)c2C1c1cccc(C(F)(F)F)c1 (stereo unspecified) | 130 to 131 °C |
| CCOC(=O)c1cnc2c([N+](=O)[O-])cc(CN3CCOCC3)cc2c1O | 214 to 216 °C |
| Nc1nc(-c2ccc(Cl)cc2)c(CCC(=O)N2CCS(=O)(=O)CC2)s1 | 220 to 222 °C |
| O=c1ccn(-c2cccc(C(F)(F)F)c2)nc1-c1c(F)cnn1-c1ccccc1 | 156 to 158 °C |
| CCCCCC(C)C(C)c1cc(O)c2c(c1)OC(C)(C)C1=C2CN(CC(=O)NC(=O)Nc2ccccc2)CC1 (stereo unspecified) | 159 to 161 °C |
| CC1C(=O)N(c2ccc(O)cc2)C(=S)N1c1ccc(Oc2ccccc2)cc1 (stereo unspecified) | 202 to 204 °C |
| Cc1nsc(OCC(F)(F)F)c1S(=O)(=O)NC(C)(C)C | 87 to 90 °C |
| COc1cc2ncnc(N3CCN(C(=O)Nc4ccc(N(C)C)cc4)CC3)c2cc1OC | 252 to 254 °C |
| CC(C)Oc1cncc(Br)c1 | 144 to 146 °C |
| CC(C)(C)OC(=O)c1cccc(O)c1 | 94 to 96 °C |
| CC(=O)n1ncn(N=Cc2cccnc2)c1=O | 164 to 166 °C |
| CN(C)CCOC(=O)c1cnn2c(-c3cccc(C(F)(F)F)c3)ccnc12 | 119 to 120 °C |
| CCOC(=O)Cc1ccc(-c2nc(COc3ccc(COc4nn(-c5ccccc5)cc4/C=C/c4coc(C(C)C)n4)cc3OC)c(C)o2)cc1 | 106 to 108 °C |
| CCCc1c(Cl)nc(NC=O)nc1Cl | 92 to 94 °C |
| CSc1nccc(CC(=O)c2ccc(Cl)cc2Cl)n1 | 105 to 107 °C |
| c1ccc(C2OC3(CCOCC3)c3ccccc32)cc1 (stereo unspecified) | 132 to 134 °C |
| CCC1CCCCN1C(=O)C=Cc1c(-c2cccc(Cl)c2)nn2ccccc12 (stereo unspecified) | 100 to 104 °C |
| Cc1cc(Cl)nc(C=Cc2ccccc2)n1 | 71 to 73 °C |
| CC(C)(C)Oc1ccc(CCC(=O)OCc2ccc([N+](=O)[O-])cc2)cc1 | 30 to 32 °C |
